# Measured values from patent US12497393B2, “β-lactam compound, use thereof and preparation method therefor” (priority 2020, dated 2025).
# Where two headings read alike, the source gives them in different places. Where a SMILES comes first, the peptide text is derived from it. Bridges are numbered along the chain shown (N, C = ends). [ ]: non-standard residue; d: D form. The star is where a group is joined. Heptanoyl(6-Me) = CC(C)CCCCC(=O)*; Dab = NCC[C@H](N)C(=O)O
# Experiments:
# Assay in all cases: Antibacterial activity MIC assay (two-fold dilution agar plating)
# Format in all cases: cell-based
# [1] = tested on: Citrobacter freundii; conditions: Citrobacter freundii ATCC 43864
# Experimental: (§1) Antibacterial Activity-Evaluating Method (MIC Assay)
# (§2) In this study, the compounds of the present invention were tested for their antibacterial activities by using two-fold dilution agar plating method and Denley Multipoint Inoculator A400 according to the guidelines of the CLSI/NCCLS standard. The tested strains were amplified by hydrolyzed casein peptone (Mueller-Hinton Agar) broth and Brain and Heart Infusion. The strains used in this study were bacterial strains that were purchased from ATCC or clinically isolated in Chinese hospitals. Aztreonam, polymyxin or levofloxacin was used as positive control. The drugs were diluted with hydrolyzed casein peptone broth to the desired concentrations including 128.0, 64.0, 32.0, 16.0, 8.0, 4.0, 2.0, 1.0, 0.5, 0.25, 0.125, 0.06 and 0.03 μg/mL, and then placed respectively into each well and mixed thoroughly. After inoculation, the tested strains were incubated for 18 hours at a constant temperature of 35° C., and their growth levels were observed. The drug concentration with no microbial growth in the well was recorded as the lowest Minimal Inhibitory Concentration (MIC).
# [2] = tested on: Providencia rettgeri
# Experimental: as §1, §2
# [3] = tested on: Salmonella typhi
# Experimental: as §1, §2
# [4] = tested on: Serratia marcescens; conditions: Serratia marcescens ATCC 21074
# Experimental: as §1, §2
# [5] = tested on: Klebsiella Pneumoniae; conditions: for MIC: Klebsiella pneumoniae, read-out: Minimal Inhibitory Concentration (MIC)
# Experimental: as §1, §2
# [6] = tested on: Escherichia coli; conditions: for MIC: Escherichia coli, read-out: Minimal Inhibitory Concentration (MIC)
# Experimental: as §1, §2
# [7] = tested on: Pseudomonas aeruginosa; conditions: for MIC: read-out: Minimal Inhibitory Concentration (MIC)
# Experimental: as §1, §2
# [8] = tested on: Enterobacter aerogenes; conditions: Enterobacter aerogenes ATCC 13048
# Experimental: as §1, §2
# [9] = tested on: Proteus vulgaris
# Experimental: as §1, §2
# [10] = tested on: Proteus mirabilis
# Experimental: as §1, §2
# [11] = tested on: Enterobacter cloacae; conditions: for MIC: read-out: Minimal Inhibitory Concentration (MIC)
# Experimental: as §1, §2
# [12] = tested on: Stenotrophomonas maltophilia; conditions: Stenotrophomonas maltophilia ATCC 13636
# Experimental: as §1, §2
# [13] = tested on: Acinetobacter baumannii; conditions: for MIC: Acinetobacter baumannii, read-out: Minimal Inhibitory Concentration (MIC)
# Experimental: as §1, §2
# [14] = tested on: Shigella flexneri; conditions: Shigella flexneri ATCC 12022
# Experimental: as §1, §2
# [15] = Klebsiella Pneumoniae 09-20, mcr-1(+)
# [16] = Klebsiella Pneumoniae 16-2, ESBLs(−)
# [17] = Klebsiella Pneumoniae 16-14, ESBLs(+)
# [18] = Escherichia coli 08-85, mcr-1(+)
# [19] = Escherichia coli 13-43, mcr-1(+)
# [20] = Escherichia coli 13-66, mcr-1(+)
# [21] = Escherichia coli 16-1, ESBLs(+)
# [22] = Escherichia coli 16-7, ESBLs(−)
# [23] = Escherichia coli CDC1001728, NDM-1(+)
# [24] = Enterobacter cloacae CDC1000654
smiles,measurement,setting,value
"C[C@H]1[C@H](NC(=O)/C(=N\OC(C)(C)C(=O)O)c2csc(N)n2)C(=O)N1S(=O)(=O)O [AZN, aztreonam, reference compound]",MIC,"[1]; ATCC43864, read-out: Minimal Inhibitory Concentration (MIC)",0.12 µg/mL
same,MIC,"[2]; Providencia rettgeri, ATCC31052, Providencia rettgeri ATCC 31052, read-out: Minimal Inhibitory Concentration (MIC)",≤ 0.03 µg/mL
same,MIC,"[3]; Salmonella enterica, TYPHI, read-out: Minimal Inhibitory Concentration (MIC)",≤ 0.03 µg/mL
same,MIC,"[4]; ATCC21074, read-out: Minimal Inhibitory Concentration (MIC)",0.12 µg/mL
same,MIC,"[5]; ATCC700603, Klebsiella Pneumoniae ATCC 700603, ESBLs(+)",32 µg/mL
same,MIC,"[5]; ATCCBAA2146, Klebsiella Pneumoniae ATCC BAA-2146, NDM-1(+)",> 128 µg/mL
same,MIC,[5]; [15],0.25 µg/mL
same,MIC,[5]; [16],0.06 µg/mL
same,MIC,[5]; [17],4 µg/mL
same,MIC,"[5]; Klebsiella Pneumoniae 17-R27, CRE",0.25 µg/mL
same,MIC,"[6]; ATCC25922, Escherichia coli ATCC 25922, ESBLs(−)",0.06 µg/mL
same,MIC,"[6]; ATCC35218, Escherichia coli ATCC 35218, ESBLs(+)",≤ 0.03 µg/mL
same,MIC,[6]; [18],4 µg/mL
same,MIC,[6]; [19],8 µg/mL
same,MIC,[6]; [20],8 µg/mL
same,MIC,[6]; [21],≤ 0.03 µg/mL
same,MIC,[6]; [22],0.06 µg/mL
same,MIC,"[6]; Escherichia coli 17-R28, CRE, NDM-1(+)",16 µg/mL
same,MIC,[6]; [23],4 µg/mL
same,MIC,"[7]; ATCC27853, Pseudomonas aeruginosa ATCC 27853",4 µg/mL
same,MIC,[7]; Pseudomonas aeruginosa 16-11,> 128 µg/mL
same,MIC,[7]; Pseudomonas aeruginosa PAO1,4 µg/mL
same,MIC,"[8]; Klebsiella aerogenes, ATCC13048, read-out: Minimal Inhibitory Concentration (MIC)",0.12 µg/mL
same,MIC,"[9]; Proteus vulgaris, ATCC29905, Proteus vulgaris ATCC 29905, read-out: Minimal Inhibitory Concentration (MIC)",≤ 0.03 µg/mL
same,MIC,"[10]; Proteus mirabilis, ATCC49565, Proteus mirabilis ATCC 49565, read-out: Minimal Inhibitory Concentration (MIC)",≤ 0.03 µg/mL
same,MIC,"[11]; ATCC43560, Enterobacter cloacae ATCC 43560",≤ 0.03 µg/mL
same,MIC,[11]; [24],> 128 µg/mL
same,MIC,"[12]; ATCC13636, read-out: Minimal Inhibitory Concentration (MIC)",32 µg/mL
same,MIC,"[13]; ATCC19606, Acinetobacter baumannii ATCC 19606",32 µg/mL
same,MIC,[13]; Acinetobacter baumannii 16-16,128 µg/mL
same,MIC,[13]; Acinetobacter baumannii 16-33,32 µg/mL
same,MIC,"[14]; ATCC12022, read-out: Minimal Inhibitory Concentration (MIC)",0.25 µg/mL
"CC(C)CCCCC(=O)N[C@@H](CCN)C(=O)N[C@H](C(=O)N[C@@H](CCN)C(=O)N[C@H]1CCNC(=O)[C@H]([C@@H](C)O)NC(=O)[C@H](CCN)NC(=O)[C@H](CCN)NC(=O)[C@H](CC(C)C)NC(=O)[C@@H](CC(C)C)NC(=O)[C@H](CCN)NC1=O)[C@@H](C)O [Colistin B, colistin B, reference compound] ({Heptanoyl(6-Me)}-[Dab]T[Dab][Dab][Dab][dL]L[Dab][Dab]T; lactam 4-C)",Minimal Inhibitory Concentration (MIC),[1],2 µg/mL
same,Minimal Inhibitory Concentration (MIC),[2]; Providencia rettgeri ATCC 31052,>64 µg/mL
same,Minimal Inhibitory Concentration (MIC),[3]; Salmonella typhi H901,1 µg/mL
same,Minimal Inhibitory Concentration (MIC),[4],>64 µg/mL
same,Minimal Inhibitory Concentration (MIC),[5]; [15],16 µg/mL
same,Minimal Inhibitory Concentration (MIC),[5]; [16],1 µg/mL
same,Minimal Inhibitory Concentration (MIC),[5]; [17],1 µg/mL
same,Minimal Inhibitory Concentration (MIC),"[5]; Klebsiella Pneumoniae ATCC 700603, ESBLs(+)",2 µg/mL
same,Minimal Inhibitory Concentration (MIC),"[5]; Klebsiella Pneumoniae ATCC BAA-2146, NDM-1(+)",1 µg/mL
same,Minimal Inhibitory Concentration (MIC),[6]; [18],8 µg/mL
same,Minimal Inhibitory Concentration (MIC),[6]; [19],8 µg/mL
same,Minimal Inhibitory Concentration (MIC),[6]; [20],8 µg/mL
same,Minimal Inhibitory Concentration (MIC),[6]; [21],0.5 µg/mL
same,Minimal Inhibitory Concentration (MIC),[6]; [22],1 µg/mL
same,Minimal Inhibitory Concentration (MIC),"[6]; Escherichia coli ATCC 25922, ESBLs(−)",1 µg/mL
same,Minimal Inhibitory Concentration (MIC),"[6]; Escherichia coli ATCC 35218, ESBLs(+)",1 µg/mL
same,Minimal Inhibitory Concentration (MIC),[6]; [23],1 µg/mL
same,Minimal Inhibitory Concentration (MIC),[7]; Pseudomonas aeruginosa 16-11,4 µg/mL
same,Minimal Inhibitory Concentration (MIC),[7]; Pseudomonas aeruginosa ATCC 27853,4 µg/mL
same,Minimal Inhibitory Concentration (MIC),[7]; Pseudomonas aeruginosa PAO1,8 µg/mL
same,Minimal Inhibitory Concentration (MIC),[8],2 µg/mL
same,Minimal Inhibitory Concentration (MIC),[9]; Proteus vulgaris ATCC 29905,>64 µg/mL
same,Minimal Inhibitory Concentration (MIC),[10]; Proteus mirabilis ATCC 49565,>64 µg/mL
same,Minimal Inhibitory Concentration (MIC),[11]; Enterobacter cloacae ATCC 43560,>64 µg/mL
same,Minimal Inhibitory Concentration (MIC),[11]; [24],1 µg/mL
same,Minimal Inhibitory Concentration (MIC),[12],>64 µg/mL
same,Minimal Inhibitory Concentration (MIC),[13]; Acinetobacter baumannii 16-16,1 µg/mL
same,Minimal Inhibitory Concentration (MIC),[13]; Acinetobacter baumannii 16-33,2 µg/mL
same,Minimal Inhibitory Concentration (MIC),[13]; Acinetobacter baumannii ATCC 19606,1 µg/mL
same,Minimal Inhibitory Concentration (MIC),[14],0.5 µg/mL
